Laboratory results: patent US12636297B2, “Boronic acid derivatives and therapeutic uses thereof” (priority 2019, dated 2026)
Like-named read-outs stand apart in the source and are kept apart here.

Key:
[1] = test system: carbapenem resistant Acinetobacter baumannii; assay: MIC of antibiotics with Compound 1 against panel of 503 carbapenem resistant Acinetobacter baumannii clinical isolates; format: cell-based; details: for MIC50 / MIC90: carbapenem resistant Acinetobacter baumannii (N = 503), antibiotic alone
Protocol: In another experiment, various antibiotics, meropenem, cefepime, ceftolozane and cefiderocol, were tested in combination with Compound 1 at 4 μg/ml and 8 μg/ml against the panel of 503 clinical isolates of carbapenem resistant Acinetobacter baumannii. […] Cefiderocol was tested at standard conditions, in […] media.

[2] = test system: Pseudomonas aeruginosa (PA); assay: Broth microdilution MIC of β-lactams alone and with Compound 1 against Pseudomonas aeruginosa clinical isolates (representative and challenge panels); format: cell-based; details: for Minimum Inhibitory Concentration Distribution, % of isolates: representative panel of PA (N = 500), without Compound 1, AVI and TAZ at 4 μg/mL; for % susceptible, [S] / MIC50 / MIC90: Compound 1, AVI, and TAZ at fixed 4 μg/mL; for % susceptible, [S]: breakpoints MER ≤8, TOL ≤4, CAZ ≤8 μg/mL; for MIC50 / MIC90: Pseudomonas aeruginosa
Protocol: (§1) In this example the in vitro activity of Compound 1 was evaluated in combination with several β-lactams including sulbactam, meropenem, and ceftolozane against clinical isolates of carbapenem-resistant (CR) Acinetobacter baumannii (AB) and Pseudomonas aeruginosa (PA).

[3] = test system: carbapenem resistant Enterobacteriaceae (CRE); assay: MIC of antibiotics with Compound 1 against panel of 510 CRE clinical isolates; format: cell-based; details: for MIC50 / MIC90: antibiotic alone
Protocol: In this example, the antibiotics meropenem, cefepime, ceftolozane and cefiderocol, were tested in combination with Compound 1 at 4 μg/ml and 8 μg/ml against a panel of 510 clinical isolates representing various types of carbapenem resistant Enterobacteriaceae (CRE). Cefiderocol was tested at standard conditions, in […] media.

[4] = test system: carbapenem-resistant (CR) Acinetobacter baumannii (AB); assay: Broth microdilution MIC of β-lactams alone and with Compound 1 against carbapenem-resistant Acinetobacter baumannii clinical isolates; format: cell-based; details: for % susceptible, [S]: breakpoints MER ≤8 μg/mL, TOL ≤4 μg/mL; for MIC: SUL alone
Protocol: as §1

[5] = test system: Carbapenem-Resistant Enterobacteriaceae; assay: MIC distribution for 509 Carbapenem-Resistant Enterobacteriaceae (FIG. 2); format: cell-based; details: Compound 1 at 8 μg/mL
Protocol: (§2) In addition, 509 Carbapenem-Resistant Enterobacteriaceae were tested with meropenem, cefepime, and ceftolozane alone and in combination with Compound 1 at 8 μg/mL. Furthermore, 262 strains of P. aeruginosa with a meropenem MIC>2 μg/mL were tested with meropenem, ceftolozane, cefepime and piperacillin alone and in combination with Compound 1 at 8 μg/mL.
The MIC distribution of combinations of Compound 1 with meropenem, cefepime and cetolozane alone, or with Compound 1 at 8 μg/mL for Carbapenem-Resistant Enterobacteriaceae were tested.

P. aeruginosa = assay: Susceptibility testing of 262 P. aeruginosa strains with meropenem MIC >2 μg/mL; format: cell-based, Pseudomonas aeruginosa; details: Compound 1 at 8 μg/mL; for % of susceptible organisms at breakpoints: breakpoints ≤8 μg/mL meropenem and cefepime, ≤4 μg/mL ceftolozane, ≤16 μg/mL piperacillin
Protocol: as §2
262 strains of P. aeruginosa having a meropenem MIC greater than 2 μg/mL were tested with meropenem, ceftolozane, cefepime and piperacillin alone and Compound 1 at 8 μg/mL.

[6] = non-carbapenemase producing CRE, N = 45
[7] = CRAB (300), Compound 1 at fixed 4 μg/mL

Cn1c(N)c(NC(=O)NCCN)c[n+]1CC1=C(C(=O)O)N2C(=O)[C@@H](NC(=O)/C(=N\OC(C)(C)C(=O)[O-])c3nsc(N)n3)[C@H]2SC1 [TOL, ceftolozane]
MIC50 [1]: > 32 µg/mL
MIC90 [1]: > 32 µg/mL
Minimum Inhibitory Concentration Distribution, % of isolates ([2]; MIC 0.125 μg/mL): 0.2%
Minimum Inhibitory Concentration Distribution, % of isolates ([2]; MIC 0.25 μg/mL): 2.8%
Minimum Inhibitory Concentration Distribution, % of isolates ([2]; MIC 0.5 μg/mL): 56.2%
Minimum Inhibitory Concentration Distribution, % of isolates ([2]; MIC 1 μg/mL): 77.4%
Minimum Inhibitory Concentration Distribution, % of isolates ([2]; MIC 2 μg/mL): 85.2%
Minimum Inhibitory Concentration Distribution, % of isolates ([2]; MIC 4 μg/mL): 90.4%
Minimum Inhibitory Concentration Distribution, % of isolates ([2]; MIC 8 μg/mL): 92.2%
Minimum Inhibitory Concentration Distribution, % of isolates ([2]; MIC 16 μg/mL): 93.0%
Minimum Inhibitory Concentration Distribution, % of isolates ([2]; MIC 32 μg/mL): 93.2%
Minimum Inhibitory Concentration Distribution, % of isolates ([2]; MIC >32 μg/mL): 100.0%
Minimum Inhibitory Concentration Distribution, % of isolates ([2]; MIC ≤0.06 μg/mL): 0.2%
% susceptible, [S] ([2]; PA (CAZ-AVI MIC >8) (37)): (18.2) %
% susceptible, [S] ([2]; PA (Challenge, 652)): (44.0) %
% susceptible, [S] ([2]; PA (MER MIC >2) (612)): (56.2) %
% susceptible, [S] ([2]; PA (Representative, 500)): (90.4) %
% susceptible, [S] ([2]; PA (TOL-TAZ MIC >4) (39)): (3.3) %
MIC50 ([2]; PA (CAZ-AVI MIC >8) (37)): > 32 µg/mL
MIC90 ([2]; PA (CAZ-AVI MIC >8) (37)): > 32 µg/mL
MIC50 ([2]; PA (Challenge, 652)): 16 µg/mL
MIC90 ([2]; PA (Challenge, 652)): > 32 µg/mL
MIC50 ([2]; PA (MER MIC >2) (612)): 4 µg/mL
MIC90 ([2]; PA (MER MIC >2) (612)): > 32 µg/mL
MIC50 ([2]; PA (Representative, 500)): 0.5 µg/mL
MIC90 ([2]; PA (Representative, 500)): 4 µg/mL
MIC50 ([2]; PA (TOL-TAZ MIC >4) (39)): > 32 µg/mL
MIC90 ([2]; PA (TOL-TAZ MIC >4) (39)): > 32 µg/mL
MIC50 ([3]; CRE KPC, N = 168): > 32 µg/mL
MIC90 ([3]; CRE KPC, N = 168): > 32 µg/mL
MIC50 ([3]; CRE MBL, N = 145): > 32 µg/mL
MIC90 ([3]; CRE MBL, N = 145): > 32 µg/mL
MIC50 ([3]; CRE OXA, N = 152): > 32 µg/mL
MIC90 ([3]; CRE OXA, N = 152): > 32 µg/mL
MIC50 [3, 6]: > 32 µg/mL
MIC90 [3, 6]: > 32 µg/mL
% susceptible, [S] ([4]; AB CP (100), defined carbapenemases, Compound 1 at fixed 4 μg/mL): (0.0) %
MIC50 ([4]; Acinetobacter baumannii, AB CP (100), defined carbapenemases, Compound 1 at fixed 4 μg/mL, read-out: MIC50): > 32 µg/mL
MIC90 ([4]; Acinetobacter baumannii, AB CP (100), defined carbapenemases, Compound 1 at fixed 4 μg/mL, read-out: MIC90): > 32 µg/mL
MIC50 [4, 7]: >32/>32 μg/mL
MIC90 [4, 7]: >32/>32 μg/mL
% susceptible, [S] [4, 7]: (1.3) %

O=C(O)c1c(F)ccc2c1OB(O)[C@@H]1C[C@H]21 [Compound 1, 5-Fluoro-2-hydroxy-1a,7b-dihydro-1H-cyclopropa[c][1,2]benzoxaborinine-4-carboxylic acid]
Effect on potency of meropenem, cefepime and ceftolozane (MIC distribution, FIG. 2) [5]: significantly increased potency of all tested antibiotics
Effect on potency of antibiotics ([1]; Compound 1 at 4 and 8 μg/ml, 503 carbapenem resistant A. baumannii isolates): significantly enhances the potency of meropenem and cefiderocol
Effect on proportion of susceptible P. aeruginosa (P. aeruginosa; 262 strains with meropenem MIC >2 μg/mL): increased the proportion of susceptible organisms for all tested agents
Effect on MIC90 of antibiotics ([3]; Compound 1 at 4 and 8 μg/ml, 510 CRE clinical isolates): shifted MIC90 of all antibiotics (except ceftolozane tested against metallo beta-lactamases, MBL) into susceptible range

CC1(C)[C@H](C(=O)O)N2C(=O)C[C@H]2S1(=O)=O [SUL, sulbactam]
MIC50 ([4]; Acinetobacter baumannii): > 32 µg/mL
MIC90 ([4]; Acinetobacter baumannii): > 32 µg/mL
MIC ([4]; Acinetobacter baumannii, read-out: Minimum Inhibitory Concentration, AB1144 (NDM-1)): > 64 µg/mL
MIC ([4]; Acinetobacter baumannii, read-out: Minimum Inhibitory Concentration, AB1192 (OXA-24, OXA-72)): 32 µg/mL
MIC ([4]; Acinetobacter baumannii, read-out: Minimum Inhibitory Concentration, AB1223 (OXA-72)): 4 µg/mL
MIC ([4]; Acinetobacter baumannii, read-out: Minimum Inhibitory Concentration, AB1227 (OXA-23)): 64 µg/mL
MIC ([4]; Acinetobacter baumannii, read-out: Minimum Inhibitory Concentration, AB1244 (OXA-23)): 64 µg/mL
MIC ([4]; Acinetobacter baumannii, read-out: Minimum Inhibitory Concentration, AB1291 (KPC-2)): > 64 µg/mL
MIC ([4]; Acinetobacter baumannii, read-out: Minimum Inhibitory Concentration, AB1307 (OXA-23)): 32 µg/mL
MIC ([4]; Acinetobacter baumannii, read-out: Minimum Inhibitory Concentration, AB1333 (OXA-239)): 16 µg/mL
MIC ([4]; Acinetobacter baumannii, read-out: Minimum Inhibitory Concentration, AB1358 (NDM-1)): > 64 µg/mL
MIC ([4]; Acinetobacter baumannii, read-out: Minimum Inhibitory Concentration, AB1359 (NDM-1)): > 64 µg/mL

CC(C)(O/N=C(\C(=O)N[C@@H]1C(=O)N2C(C(=O)[O-])=C(C[N+]3(CCNC(=O)c4ccc(O)c(O)c4Cl)CCCC3)CS[C@H]12)c1csc(N)n1)C(=O)O [DER, cefiderocol]
MIC50 [1]: 1 µg/mL
MIC90 [1]: 32 µg/mL
MIC50 ([3]; CRE KPC, N = 168): 2 µg/mL
MIC90 ([3]; CRE KPC, N = 168): 32 µg/mL
MIC50 ([3]; CRE MBL, N = 145): 8 µg/mL
MIC90 ([3]; CRE MBL, N = 145): > 32 µg/mL
MIC50 ([3]; CRE OXA, N = 152): 1 µg/mL
MIC90 ([3]; CRE OXA, N = 152): 8 µg/mL
MIC50 [3, 6]: 2 µg/mL
MIC90 [3, 6]: 32 µg/mL

CO/N=C(\C(=O)N[C@@H]1C(=O)N2C(C(=O)[O-])=C(C[N+]3(C)CCCC3)CS[C@H]12)c1csc(N)n1 [FEP, cefepime]
MIC50 [1]: > 32 µg/mL
MIC90 [1]: > 32 µg/mL
% of susceptible organisms at breakpoints (P. aeruginosa; All strains (N = 262), meropenem MIC >2 μg/mL): 20%
% of susceptible organisms at breakpoints (P. aeruginosa; MBL (N = 56)): 4%
% of susceptible organisms at breakpoints (P. aeruginosa; No MBL (N = 206)): 24%
MIC50 ([3]; CRE KPC, N = 168): 32 µg/mL
MIC90 ([3]; CRE KPC, N = 168): > 32 µg/mL
MIC50 ([3]; CRE MBL, N = 145): > 32 µg/mL
MIC90 ([3]; CRE MBL, N = 145): > 32 µg/mL
MIC50 ([3]; CRE OXA, N = 152): > 32 µg/mL
MIC90 ([3]; CRE OXA, N = 152): > 32 µg/mL
MIC50 [3, 6]: > 32 µg/mL
MIC90 [3, 6]: > 32 µg/mL
